Test results from patent US8940736B2, “Imidazotriazinecarbonitriles useful as kinase inhibitors” (Bristol-Myers Squibb Company, priority 2012, dated 2015).

Assays:
recombinant CK2A2 = recombinant CK2A2 (Homo sapiens (Human), UniProt P19784); assay: CK2 kinase assay (CK2A2); type: biochemical; conditions: Table B, comparison compound of WO 2007/038314 / US 2008/0045536
Method: (§1) For example, in vitro protein kinase assays may be conducted with a relevant purified protein kinase and an appropriate synthetic substrate to determine the inhibitory activity of the compounds. […] Reaction mixtures were incubated at 30° C. for 1 hour, and reaction products were captured by binding to phosphocellulose (P81) filter plates. Incorporation of radioactive phosphate into the peptide substrate was determined by liquid scintillation counting.
(§2) The inhibitory activity of the instant compounds may also be measured by recombinant CK2 holoenzyme kinase assays. The assays were performed in U-bottom 384-well plates. […] The reaction was initiated by the combination of bacterially expressed, CK2α/β or CK2α′/β holoenzyme with substrates and test compounds. […] Compounds were dissolved at 10 mM in dimethylsulfoxide (DMSO) and evaluated at eleven concentrations. IC50 values were derived by non-linear regression analysis.

recombinant CK2A1 = recombinant CK2A1 (Homo sapiens (Human), UniProt P68400); assay: CK2 kinase assay (CK2A1); type: biochemical; conditions: Table B, comparison compound of WO 2007/038314 / US 2008/0045536
Chain of recombinant CK2A1 (P68400 whole entry): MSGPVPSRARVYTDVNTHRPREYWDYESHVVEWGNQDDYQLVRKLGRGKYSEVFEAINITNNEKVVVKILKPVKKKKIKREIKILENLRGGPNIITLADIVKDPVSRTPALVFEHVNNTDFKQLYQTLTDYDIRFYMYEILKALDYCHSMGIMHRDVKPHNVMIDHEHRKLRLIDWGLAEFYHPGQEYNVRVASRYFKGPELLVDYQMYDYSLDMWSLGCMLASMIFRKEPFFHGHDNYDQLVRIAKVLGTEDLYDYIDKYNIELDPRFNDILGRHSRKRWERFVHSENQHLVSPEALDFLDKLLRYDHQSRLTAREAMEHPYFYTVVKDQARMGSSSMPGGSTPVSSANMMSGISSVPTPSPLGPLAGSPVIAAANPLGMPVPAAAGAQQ
Method: as §1, §2

Chain of recombinant CK2A2 (P19784 whole entry): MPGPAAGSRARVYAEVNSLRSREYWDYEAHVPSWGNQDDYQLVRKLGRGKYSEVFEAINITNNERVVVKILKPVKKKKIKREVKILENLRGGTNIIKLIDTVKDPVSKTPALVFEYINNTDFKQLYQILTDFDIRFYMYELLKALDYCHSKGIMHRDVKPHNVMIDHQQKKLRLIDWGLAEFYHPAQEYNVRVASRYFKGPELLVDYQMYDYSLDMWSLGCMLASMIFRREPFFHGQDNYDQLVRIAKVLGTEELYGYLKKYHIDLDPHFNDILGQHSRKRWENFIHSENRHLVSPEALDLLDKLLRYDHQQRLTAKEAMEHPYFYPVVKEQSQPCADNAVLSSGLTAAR

CCOc1ccc(Nc2nc(N[C@H]3CC[C@@H](N)CC3)nn3ccnc23)cc1 [XIII]
IC50 (recombinant CK2A2): 331 nM
IC50 (recombinant CK2A1): 1800 nM
